Measured values from patent US6143763A, “Carbostyril derivatives” (D. Western Therapeutics Institiute, priority 1995, dated 2000).

Tests used:
[1] = system: death induced by pulmonary infarction in mice; assay: Antithrombotic activity: inhibition of death by collagen-induced pulmonary infarction in mice; format: in vivo, male ICR mice; conditions: Mus musculus, 1 h; 30 mg/kg oral, 10 minutes before i.v. collagen; lethality in an hour; read-out: Pulmonary infarction inhibitory activity
Excerpt: Pharmacological Experiment 2 Antithrombotic activity
Antithrombotic activity of the test compounds was estimated by an inhibitory activity of the test compound by oral administration against death induced by pulmonary infarction in mice which was introduced by intravenous administration of collagen (pulmonary infarction inhibitory activity).
Male ICR mice (5-week old, body weight; about 25 g) was fasted overnight, and separated into groups (15 mice per each group) and numbered. A test compound solution, which was prepared by suspending a test compound in 1% hydroxypropylmethyl cellulose 2910 TC-5 (HPMC, manufactured by Shin-etsu Chemical Co., Ltd.), was orally administered to the mice, and 10 minutes thereafter, a collagen solution (the method for preparation thereof and a dose thereof are explained hereafter) was injected to the mice at the tail vein at the constant rate. The lethality of the mice was determined by the number of mice which were died in an hour after the administration of collagen solution. The antithrombotic activity of the test compound was estimated by the inhibitory rate (%) of the lethality of the mice. The collagen solution was prepared by dissolving collagen (Type III, manufactured by Sigma Chemical Ltd.) in 0.05 M acetic acid solution containing 2 mM calcium chloride and 5% glucose at 4° C. so that the final concentration of collagen was adjusted to 2.5 mg/ml, and then the pH value thereof was adjusted to pH 7.4 with sodium hydroxide the day before the experiment. The collagen solution was incubated with stirring at 37° C. for two hours, and then further stirred at room temperature overnight. Just before the experiment, the pH value of the collagen solution was adjusted again to pH 7.4. The amount of the collagen solution which was injected at the tail vein was previously determined so that the lethality by pulmonary infarction induced thereby became about 75%.

[2] = system: left common carotid artery injured by balloon; assay: Intima thickening inhibitory activity after balloon injury (3H-thymidine in carotid artery); format: in vivo, male SD rats; conditions: Rattus norvegicus; dose 30 mg/kg, oral
Experimental: Pharmacological Experiment 3 Intima thickening inhibitory activity
Male SD rats (6-week old) were separated into groups (8 rats per each group) and numbered. A test compound solution, which was prepared by suspending a test compound in 1% hydroxypropylmethyl cellulose 2910 TC-5 (HPMC, manufactured by Shin-etsu Chemical Co., Ltd.) was orally administered to the rats. In the control group, 1% HPMC solution was orally administered instead of the test compound solution. One or two hours thereafter, two french balloon catheters (manufactured by Baxter Travenol Inc.) were inserted into the left common carotid artery of the rats, and the artery was injured by abrading five times with a balloon. The day of balloon abrasion was considered as Day 0. On the following day (Day 1), a test compound was orally administered to the rats two times a day (in the morning and in the evening). On Day 2, 1.48 MBq/ml of ^3 H-thymidine (dose: 5 ml/kg, manufactured by NEN Research Products, Ltd.) was injected at the tail vein of the rats about one hour after the administration of the test compound so that the time after the balloon injury was fixed to the same in each rat. Precisely 45 minutes after the injection of ^3 H-thymidine at the tail veil, the common carotid artery of the rats was taken out.
In the test compound-treated group, only the left common carotid artery which was injured by balloon was taken out, and in the control group, both the left and right common carotid arteries were taken out. The common carotid artery thus obtained was cut to pieces of exact 1 cm long, and the unnecessary portions such as the outer membrane or the nerves were completely removed. The common carotid artery was put into a glass vial, and thereto was added a 0.5 N sodium hydroxide (0.5 ml), and the mixture was incubated at 37° C. overnight to be solubilized. The mixture was neutralized with a 5 N hydrochloric acid (0.05 ml), and thereto was further added an aqueous hydrogen peroxide solution (0.1 ml). Aquasol II (10 ml, manufactured by Du Pont Co.) was added thereto, and the mixture was well stirred and then allowed to stand for 30 minutes. The radioactivity of tritium in the mixture was counted by liquid scintillation counter. The intima thickening inhibitory activity of the test compound was calculated by the following equation. [formula] L (c): The amount of tritium in the left common carotid artery in the control group (dpm)
R (c): The amount of tritium in the right common carotid artery in the control group (dpm)
L: The amount of tritium in the left common carotid artery in the test compound-treated group (dpm)

[3] = system: platelet aggregation (collagen); assay: Platelet aggregation inhibitory activity, collagen-induced (Born's turbidimetry, rabbit PRP); format: cell-based, male rabbit (NZW); conditions: Oryctolagus cuniculus, collagen 20 μg/ml final, 37° C.
Experimental: (§1) Pharmacological Experiment 1 Platelet aggregation inhibitory activity
(§2) (1) Preparation of platelet rich plasma (PRP):
(§3) The blood was collected from the carotid of a male rabbit without anesthesia (NZW species, body weight; 2-3 kg) with mixing thereof with 1/10 volume of citric acid. The blood thus obtained was separated and put into plastic test tubes (each about 7 ml), and centrifuged at 900 rpm for 15 minutes at room temperature to give a turbid supernatant as a platelet rich plasma (PRP). The residue from which PRP is separated was centrifuged at 3000 rpm for 10 minutes, and the supernatant was collected as a platelet poor plasma (PPP). The PRP was diluted with PPP so that the concentration thereof was adjusted to […], and used in the platelet aggregation inhibitory activity test.
(§4) (2) Method for platelet aggregation inhibitory activity test:
(§5) The platelet aggregation was tested according to Born's turbidimetry. That is, a test compound was dissolved in dimethylformamide, and the test compound solution (1 μl) thus obtained was put into a cuvette, and thereto was further added PRP (200 μl). Immediately thereafter, the cuvette was set into an apparatus for determining platelet aggregation activity, PAM-8T (manufactured by Mevanix Inc.), and the mixture was incubated at 37° C. Precisely three minutes thereafter, a solution of adenosine diphosphate (ADP, PA test ADP [MCM], purchased by MC Medical Ltd.) in physiological saline solution or a collagen solution (Collagenreagent Horm, purchased by MC Medical Ltd.) (20 μl) was added thereto. The final concentration of the ADP solution or the collagen solution was 7.5 μM or 20 μg/ml, respectively.
(§6) The maximum aggregation rate and the aggregation inhibitory rate were calculated by the following equations. [formula]
(§7) IC50, which is a concentration of the test compound being required to inhibit the platelet aggregation reaction by 50%, was determined from the aggregation inhibitory rates at two different concentrations of a test compound.

[4] = system: platelet aggregation (ADP); assay: Platelet aggregation inhibitory activity, ADP-induced (Born's turbidimetry, rabbit PRP); format: cell-based, male rabbit (NZW); conditions: Oryctolagus cuniculus, ADP 7.5 μM final, 37° C.
Experimental: as §1, §2, §3, §4, §5, §6, §7

[5] = molecular target: T1, cGMP-inhibited cAMP phosphodiesterase (PDE3) (Homo sapiens, UniProt Q14432); assay: cGMP-inhibited cAMP phosphodiesterase (PDE3) inhibitory activity; format: biochemical; conditions: 0.4 μM [8-3H]cAMP, pH 8.0, 30° C., 15 minutes; recombinant enzyme from Sf9; read-out: PDE inhibitory activity IC50
T1 construct: made in house; host or cells: insect cell Sf9, baculovirus expression system
T1 sequence (Q14432 whole entry): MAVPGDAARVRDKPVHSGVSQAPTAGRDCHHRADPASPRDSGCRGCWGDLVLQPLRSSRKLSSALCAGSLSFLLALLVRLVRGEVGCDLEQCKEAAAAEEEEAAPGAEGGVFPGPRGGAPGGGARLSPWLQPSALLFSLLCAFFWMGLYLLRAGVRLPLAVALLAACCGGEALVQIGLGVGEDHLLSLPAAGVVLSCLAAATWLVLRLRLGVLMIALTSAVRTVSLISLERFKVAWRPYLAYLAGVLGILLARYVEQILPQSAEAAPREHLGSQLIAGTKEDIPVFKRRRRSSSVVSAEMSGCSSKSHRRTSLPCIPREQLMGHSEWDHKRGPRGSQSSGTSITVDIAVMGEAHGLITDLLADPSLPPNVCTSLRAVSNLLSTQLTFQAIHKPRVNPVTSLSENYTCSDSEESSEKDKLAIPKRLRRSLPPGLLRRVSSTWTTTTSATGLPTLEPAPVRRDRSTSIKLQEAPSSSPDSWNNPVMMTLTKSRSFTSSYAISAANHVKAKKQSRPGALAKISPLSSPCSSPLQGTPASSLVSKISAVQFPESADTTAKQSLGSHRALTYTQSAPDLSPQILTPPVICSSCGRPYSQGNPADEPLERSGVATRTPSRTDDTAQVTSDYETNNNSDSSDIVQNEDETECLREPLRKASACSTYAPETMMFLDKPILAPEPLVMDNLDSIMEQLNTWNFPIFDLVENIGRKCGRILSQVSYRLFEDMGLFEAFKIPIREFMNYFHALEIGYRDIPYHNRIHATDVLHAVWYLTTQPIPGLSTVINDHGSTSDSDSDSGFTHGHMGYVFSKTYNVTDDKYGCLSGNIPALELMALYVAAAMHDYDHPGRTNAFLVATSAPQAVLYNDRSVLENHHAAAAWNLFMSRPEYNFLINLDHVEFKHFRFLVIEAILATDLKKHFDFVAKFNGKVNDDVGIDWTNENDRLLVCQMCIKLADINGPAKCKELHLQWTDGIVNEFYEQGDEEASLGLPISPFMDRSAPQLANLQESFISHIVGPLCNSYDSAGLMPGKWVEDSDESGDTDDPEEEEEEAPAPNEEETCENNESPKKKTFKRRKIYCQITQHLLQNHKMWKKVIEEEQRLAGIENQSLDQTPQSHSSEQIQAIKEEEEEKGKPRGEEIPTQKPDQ

| Structure (SMILES) | inhibition in vivo at 30 mg/kg [1] | inhibition in vivo at 30 mg/kg [2] | IC50 [3] | IC50 [4] | IC50 [5] |
| --- | --- | --- | --- | --- | --- |
| CCC(O)CN(C(=O)NCCCOc1ccc2[nH]c(=O)ccc2c1)C1CCCCC1 (centres unmarked) [Ex. 10] | 74% | 34.2% | 0.3 µM | 0.4 µM | 0.0243 µM |
| CN(CCCOc1ccc2[nH]c(=O)ccc2c1)C(=O)N(C)C1CCCCC1 [Ex. 12, 6-[3-(1,3-dimethyl-3-cyclohexylureido)propoxy]carbostyril] | 100% | 21.1% | 20.5 µM | 31.6 µM | 0.197 µM |
| O=C(NCCCOc1ccc2[nH]c(=O)ccc2c1)N(C1CC1)[C@@H]1CCCC[C@H]1OCCCO [Ex. 17, (R,R)-(-)-6-{3-[3-[trans-2-(3-hydroxypropoxy)cyclohexyl]-3-cyclopropylureido]propoxy}carbostyril] | 100% | 16% | 2.39 µM | 0.14 µM | 0.0608 µM |
| CN(NC(=O)NCCCOc1ccc2[nH]c(=O)ccc2c1)C1CCCCC1 [Ex. 28] | 100% | 27.8% | 0.1 µM | 0.11 µM | 0.000826 µM |
